From US20160207951A1, “ORGANOMETALLIC COMPOUNDS FOR USE AS ANTHELMINTICS” (UNIVERSITÄT ZÜRICH, priority 2013, published 2016)
Like-named read-outs stand apart in the source and are kept apart here.

Columns and labels:
Haemonchus contortus = experiment: activity in vitro against Haemonchus contortus (egg hatch and larval development)
Dirofilaria immitis = experiment: activity in vitro against Dirofilaria immitis microfilariae (motility); parameters: dose or concentration left out as unconfirmed
[1] = test system: Trichostrongylus colubriformis; experiment: activity in vitro against Trichostrongylus colubriformis (egg hatch and larval development); parameters: dose or concentration left out as unconfirmed
H. contortus = experiment: larval development assay, number of L3 H. contortus; parameters: species or system Haemonchus contortus
C. elegans = C. elegans movement inhibition assay
Protocol: Asynchronous N2 C. elegans worms (Bristol) were maintained on nematode growth medium (NGM) agar, seeded with a lawn on OP50 E. coli as a food-source, according to standard protocol (Maintenance of C. elegans; Stiernagle, T., Ed.; WormBook, 2006.). Worms were harvested from NGM plates by washing with M9 buffer (42 mmol/l Na2HPO4, 22 mmol/l KH2PO4, 86 mmol/l NaCl and 1 mmol/MgSO4), aspiration and collection in a 10 mL tube (Falcon). The average number of worms in 5 μL of this suspension was calculated by transferring 4×5 μL aliquots to a glass slide (Menzel Glaser), and worms were enumerated under a compound microscope (Olympus CH30). To adjust the suspension to contain 1 worm per μL, M9 buffer was either added or removed after pelleting worms at 600×g for 30 sec.
A volume of 70 μL of M9 buffer was added to each well in a 96-well plate, using a multichannel pipettor. A volume of 20 μL of worm suspension was added to each well using a single-channel pipettor, with a trimmed pipette tip (increased aperture to minimize damage to worms). The worm suspension was resuspended by flicking after every three wells to maintain consistency. The compounds were stored at 4° C., and diluted in dimethyl sulfoxide (DMSO) to achieve a 100 mmol/l concentration 1 hr prior to addition to assay. These stock solutions were diluted further in DMSO to create a series of 20 mmol/l, 2 mmol/l, 0.02 mmol/l and 0.002 mmol/l which were subsequently diluted 1:20 in M9 buffer to create 1 mmol/l, 0.1 mmol/l, 1 μmol/l and 0.1 μmol/l (all 5% (v/v) DMSO). […] A Zolvix (monepantel) dilution series was simultaneously created following the same dilution schema, and used as a positive control; 10 μL of 10% DMSO was added to achieve 1% DMSO vehicle control. 10 μL M9 was added to negative control wells (see FIG. 1). Plates were incubated at room temperature (22-24° C.) overnight at 20° C.
Immobile worms were counted as a percentage of total worms in each well using an Olympus SZ30 dissecting microscope. The immobile fraction was subtracted from the total, and this remainder was divided by the total to give a percentage of live worms per well.

[2] = test system: human cervical cancer HeLa; experiment: fluorometric cell viability assay (Resazurin) in HeLa; settings: read-out: IC50 in HeLa
Protocol: (§1) Human cervical carcinoma cells (HeLa) were cultured in DMEM (Gibco) supplemented with 5% fetal calf serum (FCS, Gibco), 100 U/ml penicillin, 100 μg/ml streptomycin at 37° C. and 5% CO2. The normal human fetal lung fibroblast MRC-5 cell line was maintained in F-10 medium (Gibco) supplemented with 10% FCS (Gibco), 200 mmol/l L-Glutamine, 100 U/ml penicillin, and 100 μg/ml streptomycin at 37° C. and 5% CO2. To establish the anticancer potential of the compounds they were tested in one cell line, namely HeLa by a fluorometric cell viability assay using Resazurin (Promocell GmbH). […] 1 day before treatment, cells were plated in triplicates in 96-well plates at a density of 4×10^3 cells/well in 100 μl for HeLa and 7×10^3 cells/well for MRC-5 cells. Cells were treated with increasing concentrations of the compounds for 2 days. After 2 days, medium and drug were removed and 100 ml fresh medium containing Resazurin (0.2 mg/ml final concentration) were added. After 4 h of incubation at 37′C, the highly red fluorescent dye resorufin's fluorescence was quantified at 590 nm emission with 540 nm excitation wavelength in the SpectraMax M5 microplate Reader.

[3] = test system: human lung fibroblasts MRC-5; experiment: fluorometric cell viability assay (Resazurin) in MRC-5; settings: read-out: IC50 in MRC-5
Protocol: as §1

[4] = HeLa cells, treated for 2 days, Resazurin
[5] = MRC-5 cells, treated for 2 days, Resazurin

Compound | Activity against Haemontus Contortus at 10 [mg/mL] (Haemonchus contortus) [%] | Activity against Dirofilaria immitis at 10 [mg/mL] (Dirofilaria immitis) [%] | Activity against Trychostrongylus colubriformis at 10 [mg/mL] [1] [%] | Number of L3 H. contortus/100 μM (H. contortus) | Mobility in C. elegans at 50 μM (C. elegans) [%] | IC50 [2, 4] [µM] | IC50 [3, 5] [µM] | IC50 ([2]; Homo sapiens, HeLa, 48 h) [µM] | IC50 ([3]; Homo sapiens, MRC5, 48 h) [µM]
2-(Hydroxymethyl)ruthenocenecarboxaldehyde oxime [Compound 32] | 35 | 12 | 33 | – | – | – | – | – | –
2-(hydroxymethyl)ferrocenecarboxaldehydeoxime [Compound 29] | 47 | 12 | 49 | – | – | – | – | – | –
2-(hydroxymethyl)ferrocenylmethylamine [Compound 30] | 24 | 0 | 11 | – | – | – | – | – | –
O=C(NC[c-]1cccc1CO)c1ccc(SC(F)(F)F)cc1.[Fe+2].c1cc[cH-]c1 (centres unmarked) [Compound 3] | 24 | 0 | 13 | >100 | 4 | 20 | 44.6 | – | –
O=[C]=[Co]12(=[C]=O)(=[C]=O)[CH]3[C]1(CNC(=O)c1ccc(SC(F)(F)F)cc1)[Co]32(=[C]=O)(=[C]=O)=[C]=O (centres unmarked) [Compound 4] | – | 68 | 44 | 76.7 | 2 | – | – | – | –
O=[C]=[Co]12(=[C]=O)(=[C]=O)[C]3(CO)[C]1(CNC(=O)c1ccc(SC(F)(F)F)cc1)[Co]32(=[C]=O)(=[C]=O)=[C]=O (centres unmarked) [Compound 5] | 64 | 45 | 77 | – | – | – | – | – | –
N#Cc1ccc(C(F)(F)F)c(OCc2ccc[c-]2CNC(=O)c2ccc(SC(F)(F)F)cc2)c1.[Fe+2].c1cc[cH-]c1 (centres unmarked) [Compound 6, N-(2-((5-cyano-2-(trifluormethyl)phenoxy)methyl)ferrocenyl)-4-((trifluoromethyl)thio)benzamide] | 20 | – | 31 | >100 | 1 | 27.2 | 26.7 | – | –
N#Cc1ccc(C(F)(F)F)c(OC[C]23[C]4(CNC(=O)c5ccc(SC(F)(F)F)cc5)[Co]2(=[C]=O)(=[C]=O)(=[C]=O)[Co]43(=[C]=O)(=[C]=O)=[C]=O)c1 (centres unmarked) [Compound 7, Dicobalthexacarbonyl-N-(4-(5-cyano-2-(trifluoromethyl)phenoxy)but-2-en-1-yl)-4-((trifluoromethyl)thio)benzamide] | 63 | 100 | 25 | – | – | 26.8 | – | – | –
CC(C#N)(CO)NC(=O)[c-]1cccc1.[Fe+2].c1cc[cH-]c1 (centres unmarked) [Compound 10] | – | – | 57 | >100 | 4 | – | – | – | –
N#Cc1ccc(C(F)(F)F)c(OCC#CCNC(=O)c2ccc(SC(F)(F)F)cc2)c1 [Compound 13, N-(4-(5-cyano-2-(trifluoromethyl)phenoxy)but-2-yn-1-yl)-4-((trifluoromethyl)thio)benzamide] | 52 | 19 | 49 | – | – | – | – | 30.6 | 96.4
O=C(NCC#CCO)c1ccc(SC(F)(F)F)cc1 [Compound 14, N-(4-hydroxybut-2-yn-1-yl)-4-((trifluoromethyl)thio)benzamide] | 32 | 46 | 51 | – | – | – | – | > 100 | –
C#CCNC(=O)c1ccc(SC(F)(F)F)cc1 [Compound 15] | 51 | 28 | 51 | >100 | 3 | – | – | – | –
CN(C)Cc1ccc[c-]1C=O.[Fe+2].c1cc[cH-]c1 (centres unmarked) [Compound 27, 2-(N,N-dimethylaminomethylferrocene)carboxaldehyde] | 39 | 18 | 44 | – | – | – | – | – | –
CC(=O)OCc1ccc[c-]1C=O.[Fe+2].c1cc[cH-]c1 (centres unmarked) [Compound 28, 2-(acetoxymethylferrocene)carboxaldehyde] | 14 | 15 | 6 | – | – | – | – | – | –
O=C[c-]1cccc1CO.[Fe+2].c1cc[cH-]c1 (centres unmarked) [Compound 31, 2-(Hydroxymethylferrocene)carboxaldehyde] | 40 | – | 37 | – | – | – | – | – | –
CC(=O)OCc1ccc[c-]1C=O.[Ru+2].c1cc[cH-]c1 (centres unmarked) [Compound 36, 2-(Acetoxymethylruthenocene)carboxaldehyde] | 52 | 11 | 54 | – | – | – | – | – | –
I[c-]1cccc1.N#CS[c-]1cccc1.[Ru+2] [Compound 40, 1,1′-Thiocyanatoiodruthenocene] | – | 98 | 55 | – | – | – | – | – | –
N-(2-cyano-1-hydroxypropan-2-yl)ruthenoceneamide [Compound 41] | 0 | – | 0 | – | – | – | – | – | –
N-ferrocenyl-4-((trifluoromethyl)thio)benzamide [Compound 2] | – | 69 | 80 | >100 | 0 | 17.6 | 42 | – | –
Thiocyanatoruthenocene [Compound 39] | 0 | 66 | 0 | – | – | – | – | – | –
Trifluoromethylthioferrocene [Compound 38] | 0 | 31 | 0 | – | – | – | – | – | –
